{"source": "patent US20230085307A1", "about": "“PYRIDAZINONE COMPOUND AND HERBICIDE” (NISSAN CHEMICAL CORPORATION, priority 2019, published 2023)", "key": {"[1]": {"tested_on": "lambsquarters", "assay": "Test Example 5: herbicidal effect by foliage application, plastic box (Table 20, symbol O)", "type": "in vivo, lambsquarters (Chenopodium album)", "conditions": "foliage application, 283 g/ha, 3 weeks after application", "summary_of_the_method": "(§1)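 Foliar spray test: emulsion formulation diluted in water to a set application rate, sprayed onto 14-day-old plants raised in diluvial soil at 25° C to 30° C under glass. Both herbicidal effect and crop effect rated visually three weeks later.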"}, "[2]": {"tested_on": "lambsquarters", "assay": "Test Example 4: herbicidal effect by soil treatment (Table 19, symbol O)", "type": "in vivo, lambsquarters (Chenopodium album)", "conditions": "283 g/ha", "summary_of_the_method": "(§2)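 Herbicidal effect was rated 3 weeks after treatment, using the scoring criteria of an earlier test. The compound, formulated as an emulsion and diluted in water to a set herbicide amount, had been sprayed uniformly on soil over freshly sown seeds. Growth took place in a greenhouse at 25° C. to 30° C.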"}, "[3]": {"tested_on": "Italian ryegrass", "assay": "Test Example 5: herbicidal effect by foliage application, plastic box (Table 20, symbol K)", "type": "in vivo, Italian ryegrass (Lolium multiflorum)", "conditions": "foliage application, 283 g/ha, 3 weeks after application", "summary_of_the_method": "as §1"}, "[4]": {"tested_on": "barnyard grass", "assay": "Test Example 5: herbicidal effect by foliage application, plastic box (Table 20, symbol H)", "type": "in vivo, barnyard grass (Echinochloa crus-galli)", "conditions": "foliage application, 283 g/ha, 3 weeks after application", "summary_of_the_method": "as §1"}, "[5]": {"tested_on": "false cleavers", "assay": "Test Example 4: herbicidal effect by soil treatment (Table 19, symbol Q)", "type": "in vivo, false cleavers (Galium spurium)", "conditions": "283 g/ha", "summary_of_the_method": "as §2"}, "[6]": {"tested_on": "velvetleaf", "assay": "Test Example 4: herbicidal effect by soil treatment (Table 19, symbol M)", "type": "in vivo, velvetleaf (Abutilon theophrasti)", "conditions": "283 g/ha", "summary_of_the_method": "as §2"}, "[7]": {"tested_on": "persian speedwell", "assay": "Test Example 5: herbicidal effect by foliage application, plastic box (Table 20, symbol R)", "type": "in vivo, Persian speedwell (Veronica persica)", "conditions": "foliage application, 283 g/ha, 3 weeks after application", "summary_of_the_method": "as §1"}, "[8]": {"tested_on": "green foxtail", "assay": "Test Example 5: herbicidal effect by foliage application, plastic box (Table 20, symbol G)", "type": "in vivo, green foxtail (Setaria viridis)", "conditions": "foliage application, 283 g/ha, 3 weeks after application", "summary_of_the_method": "as §1"}, "[9]": {"tested_on": "green foxtail", "assay": "Test Example 4: herbicidal effect by soil treatment (Table 19, symbol G)", "type": "in vivo, green foxtail (Setaria viridis)", "conditions": "283 g/ha", "summary_of_the_method": "as §2"}, "[10]": {"tested_on": "wild oat", "assay": "Test Example 5: herbicidal effect by foliage application, plastic box (Table 20, symbol I)", "type": "in vivo, wild oat (Avena fatua)", "conditions": "foliage application, 283 g/ha, 3 weeks after application", "summary_of_the_method": "as §1"}, "[11]": {"tested_on": "chickweed", "assay": "Test Example 4: herbicidal effect by soil treatment (Table 19, symbol P)", "type": "in vivo, common chickweed (Stellaria media)", "conditions": "283 g/ha", "summary_of_the_method": "as §2"}, "[12]": {"tested_on": "southern crabgrass", "assay": "Test Example 4: herbicidal effect by soil treatment (Table 19, symbol F)", "type": "in vivo, southern crabgrass (Digitaria ciliaris)", "conditions": "283 g/ha", "summary_of_the_method": "as §2"}, "[13]": {"tested_on": "blackgrass", "assay": "Test Example 4: herbicidal effect by soil treatment (Table 19, symbol J)", "type": "in vivo, blackgrass (Alopecurus myosuroides)", "conditions": "283 g/ha", "summary_of_the_method": "as §2"}, "[14]": {"tested_on": "barnyard grass", "assay": "Test Example 3: herbicidal effect by foliage application, Wagner pot (Table 18, symbol H)", "type": "in vivo, barnyard grass (Echinochloa crus-galli)", "conditions": "283 g/ha", "summary_of_the_method": "(§3)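 Plants were sown in alluvial soil held under 0.1–0.5 cm standing water and grown 14 days in a greenhouse at 25–30 °C. An emulsifiable formulation, water-diluted to the set dose, was then sprayed onto the foliage, and effects were scored three weeks later using previously defined criteria.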"}, "[15]": {"tested_on": "barnyard grass", "assay": "Test Example 4: herbicidal effect by soil treatment (Table 19, symbol H)", "type": "in vivo, barnyard grass (Echinochloa crus-galli)", "conditions": "283 g/ha", "summary_of_the_method": "as §2"}, "[16]": {"tested_on": "windgrass", "assay": "Test Example 5: herbicidal effect by foliage application, plastic box (Table 20, symbol L)", "type": "in vivo, windgrass (Apera spica-venti)", "conditions": "foliage application, 283 g/ha, 3 weeks after application", "summary_of_the_method": "as §1"}, "[17]": {"tested_on": "persian speedwell", "assay": "Test Example 4: herbicidal effect by soil treatment (Table 19, symbol R)", "type": "in vivo, Persian speedwell (Veronica persica)", "conditions": "283 g/ha", "summary_of_the_method": "as §2"}, "[18]": {"tested_on": "Chinese sprangletop", "assay": "Test Example 3: herbicidal effect by foliage application, Wagner pot (Table 18, symbol D)", "type": "in vivo, chinese sprangletop (Leptochloa chinensis)", "conditions": "283 g/ha", "summary_of_the_method": "as §3"}, "[19]": {"tested_on": "windgrass", "assay": "Test Example 4: herbicidal effect by soil treatment (Table 19, symbol L)", "type": "in vivo, windgrass (Apera spica-venti)", "conditions": "283 g/ha", "summary_of_the_method": "as §2"}, "[20]": {"tested_on": "blackgrass", "assay": "Test Example 5: herbicidal effect by foliage application, plastic box (Table 20, symbol J)", "type": "in vivo, blackgrass (Alopecurus myosuroides)", "conditions": "foliage application, 283 g/ha, 3 weeks after application", "summary_of_the_method": "as §1"}, "[21]": {"tested_on": "Italian ryegrass", "assay": "Test Example 4: herbicidal effect by soil treatment (Table 19, symbol K)", "type": "in vivo, Italian ryegrass (Lolium multiflorum)", "conditions": "283 g/ha", "summary_of_the_method": "as §2"}, "[22]": {"tested_on": "false cleavers", "assay": "Test Example 5: herbicidal effect by foliage application, plastic box (Table 20, symbol Q)", "type": "in vivo, false cleavers (Galium spurium)", "conditions": "foliage application, 283 g/ha, 3 weeks after application", "summary_of_the_method": "as §1"}, "[23]": {"tested_on": "redroot pigweed", "assay": "Test Example 4: herbicidal effect by soil treatment (Table 19, symbol N)", "type": "in vivo, redroot pigweed (Amaranthus retroflexus)", "conditions": "283 g/ha", "summary_of_the_method": "as §2"}, "[24]": {"tested_on": "southern crabgrass", "assay": "Test Example 5: herbicidal effect by foliage application, plastic box (Table 20, symbol F)", "type": "in vivo, southern crabgrass (Digitaria ciliaris)", "conditions": "foliage application, 283 g/ha, 3 weeks after application", "summary_of_the_method": "as §1"}, "[25]": {"tested_on": "rice flat sedge", "assay": "Test Example 3: herbicidal effect by foliage application, Wagner pot (Table 18, symbol E)", "type": "in vivo, rice flat sedge (Cyperus iria)", "conditions": "283 g/ha", "summary_of_the_method": "as §3"}, "[26]": {"tested_on": "wild oat", "assay": "Test Example 4: herbicidal effect by soil treatment (Table 19, symbol I)", "type": "in vivo, wild oat (Avena fatua)", "conditions": "283 g/ha", "summary_of_the_method": "as §2"}, "[27]": {"tested_on": "velvetleaf", "assay": "Test Example 5: herbicidal effect by foliage application, plastic box (Table 20, symbol M)", "type": "in vivo, velvetleaf (Abutilon theophrasti)", "conditions": "foliage application, 283 g/ha, 3 weeks after application", "summary_of_the_method": "as §1"}}, "data": [{"smiles": "CCCC(=O)Oc1c(C)nn(C)c(=O)c1-c1c(-c2ccccc2OC)sc2ccc(F)cc12", "note": "[2-025]", "values": [{"measurement": "effect on lambsquarters (O)", "setting": "[1]", "value": "3 (Herbicidal rate of 40% or more and less than 70%)"}, {"measurement": "herbicidal effect rating, O: lambsquarters", "setting": "[2]", "value": "4 (Herbicidal rate of 70% or more and less than 90%)"}, {"measurement": "effect on Italian ryegrass (K)", "setting": "[3]", "value": "1 (Herbicidal rate of 5% or more and less than 20%)"}, {"measurement": "effect on barnyard grass (H)", "setting": "[4]", "value": "3 (Herbicidal rate of 40% or more and less than 70%)"}, {"measurement": "herbicidal effect rating, Q: false cleavers", "setting": "[5]", "value": "4 (Herbicidal rate of 70% or more and less than 90%)"}, {"measurement": "herbicidal effect rating, M: velvetleaf", "setting": "[6]", "value": "2 (Herbicidal rate of 20% or more and less than 40%)"}, {"measurement": "effect on persian speedwell (R)", "setting": "[7]", "value": "4 (Herbicidal rate of 70% or more and less than 90%)"}, {"measurement": "effect on green foxtail (G)", "setting": "[8]", "value": "4 (Herbicidal rate of 70% or more and less than 90%)"}, {"measurement": "herbicidal effect rating, G: green foxtail", "setting": "[9]", "value": "4 (Herbicidal rate of 70% or more and less than 90%)"}, {"measurement": "effect on wild oat (I)", "setting": "[10]", "value": "3 (Herbicidal rate of 40% or more and less than 70%)"}, {"measurement": "herbicidal effect rating, P: chickweed", "setting": "[11]", "value": "4 (Herbicidal rate of 70% or more and less than 90%)"}, {"measurement": "herbicidal effect rating, F: southern crabgrass", "setting": "[12]", "value": "3 (Herbicidal rate of 40% or more and less than 70%)"}, {"measurement": "herbicidal effect rating, J: blackgrass", "setting": "[13]", "value": "0 (Herbicidal rate of 5% or less (almost no effect))"}, {"measurement": "herbicidal effect on H (barnyard grass), rating 0-5", "setting": "[14]", "value": "4 (Herbicidal rate of 70% or more and less than 90%)"}, {"measurement": "herbicidal effect rating, H: barnyard grass", "setting": "[15]", "value": "3 (Herbicidal rate of 40% or more and less than 70%)"}, {"measurement": "effect on windgrass (L)", "setting": "[16]", "value": "1 (Herbicidal rate of 5% or more and less than 20%)"}, {"measurement": "herbicidal effect rating, R: persian speedwell", "setting": "[17]", "value": "3 (Herbicidal rate of 40% or more and less than 70%)"}, {"measurement": "herbicidal effect on D (Chinese sprangletop), rating 0-5", "setting": "[18]", "value": "0 (Herbicidal rate of 5% or less (almost no effect))"}, {"measurement": "herbicidal effect rating, L: windgrass", "setting": "[19]", "value": "0 (Herbicidal rate of 5% or less (almost no effect))"}, {"measurement": "effect on blackgrass (J)", "setting": "[20]", "value": "0 (Herbicidal rate of 5% or less (almost no effect))"}, {"measurement": "herbicidal effect rating, K: Italian ryegrass", "setting": "[21]", "value": "0 (Herbicidal rate of 5% or less (almost no effect))"}, {"measurement": "effect on false cleavers (Q)", "setting": "[22]", "value": "4 (Herbicidal rate of 70% or more and less than 90%)"}, {"measurement": "herbicidal effect rating, N: redroot pigweed", "setting": "[23]", "value": "3 (Herbicidal rate of 40% or more and less than 70%)"}, {"measurement": "effect on southern crabgrass (F)", "setting": "[24]", "value": "4 (Herbicidal rate of 70% or more and less than 90%)"}, {"measurement": "herbicidal effect on E (rice flat sedge), rating 0-5", "setting": "[25]", "value": "4 (Herbicidal rate of 70% or more and less than 90%)"}, {"measurement": "herbicidal effect rating, I: wild oat", "setting": "[26]", "value": "3 (Herbicidal rate of 40% or more and less than 70%)"}, {"measurement": "effect on velvetleaf (M)", "setting": "[27]", "value": "5 (Herbicidal rate of 90% or more (almost completely withered))"}]}]}
